Holding throughout (format): biochemical
One test addresses T1, Purified chicken MLCK (Gallus gallus, UniProt P11799).
T1 construct: from tissue
Kind of test: MLCK kinase assay (Kinase-Glo ATP consumption). The note with it: 1 μM ATP; read-out: Kinase Inhibiting Activity (IC50) MLCK. The method, then:
Purified chicken MLCK (purified by the method of M. Anne Conti, et al.: Method in Enzymol. 196, 34-47) was used to evaluate its activity to phosphorylate a substrate peptide (AKRPQRATSNVFS, Sigma).
(§1) In a system of the total volume of 50 μL, the reaction of the above-mentioned enzyme (100 ng) was carried out at room temperature for 80 minutes in the presence of 20 mM of Tris-HCl (pH 7.5), 5 mM of magnesium chloride, 0.2 mM of calcium chloride, 0.02 mg/mL of BSA, 8 μg/mL of purified bovine brain calmodulin (Sigma), 50 μM of the above peptide, and 1 μM of ATP. After the kinase reaction, the luminescence intensity corresponding to the amount of ATP in the reaction system was measured using a luciferase reagent (Kinase-Glo Luminescent Kinase Assay kit, Promega) with a chemiluminescence measurement apparatus (MicroLumat, Berthold Technologies). The amount of ATP consumed by the phosphorylation reaction was calculated by comparison with the luminescence intensity in the system when the kinase reaction was not carried out.
(§2) With this system, the kinase reaction was carried out in the presence of a compound at various concentrations, and the IC50 value of the compound was determined based on the resulting compound concentration-response curve for ATP consumption.

For a further test, the target named is T2, Recombinant mouse MKK4 (Mus musculus, UniProt P47809).
T2 construct: from 34th to 397th amino acids; purchased Upstate
T2 sequence (P47809 34-397): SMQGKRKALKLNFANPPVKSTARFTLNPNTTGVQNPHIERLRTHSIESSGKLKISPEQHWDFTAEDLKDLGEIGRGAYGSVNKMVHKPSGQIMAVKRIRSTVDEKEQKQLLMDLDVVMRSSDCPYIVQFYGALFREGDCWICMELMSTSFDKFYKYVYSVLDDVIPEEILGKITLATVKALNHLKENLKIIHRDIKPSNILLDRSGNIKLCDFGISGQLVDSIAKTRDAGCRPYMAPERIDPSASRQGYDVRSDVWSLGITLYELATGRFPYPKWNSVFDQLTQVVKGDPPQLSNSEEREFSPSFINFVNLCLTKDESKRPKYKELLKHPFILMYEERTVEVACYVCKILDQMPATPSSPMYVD
Description: MKK4 kinase assay (Kinase-Glo ATP consumption). To be noted: 1 μM ATP; read-out: Kinase Inhibiting Activity (IC50) MKK4. The procedure: as §1, with “enzyme (400” for “enzyme (100”, “of 25” for “of 20”, “7.5), 10” for “7.5), 5”, “chloride,” for “chloride, 0.2 mM of calcium chloride,”, “of” for “of BSA, 8 μg/mL of purified bovine brain calmodulin (Sigma), 50 μM of”, “above JNK1α1,” for “above peptide,”
as §2

The target of a further test is ROCKII (Rho-kinase) (Homo sapiens, UniProt O75116). Kind of test: Rho-kinase (ROCKII) assay according to Patent Document 1. The note with it: for Realative Inhibitory Activity ROCKII: ROCKII-inhibiting activity defined as 1.0 (reference); for IC50: read-out: Kinase Inhibiting Activity (IC50) ROCKII. Also noted: key to Realative Inhibitory Activity ROCKII: relative ratio; ROCKII-inhibiting activity defined as 1.0. The method, then: An Rho-kinase assay was carried out according to the method described in Patent Document 1, and the concentration of a compound for inhibiting Rho-kinase activity by 50% (hereinafter referred to as “IC50 value”) was calculated.
Sequence of ROCKII (Rho-kinase) (O75116 whole entry, species assumed): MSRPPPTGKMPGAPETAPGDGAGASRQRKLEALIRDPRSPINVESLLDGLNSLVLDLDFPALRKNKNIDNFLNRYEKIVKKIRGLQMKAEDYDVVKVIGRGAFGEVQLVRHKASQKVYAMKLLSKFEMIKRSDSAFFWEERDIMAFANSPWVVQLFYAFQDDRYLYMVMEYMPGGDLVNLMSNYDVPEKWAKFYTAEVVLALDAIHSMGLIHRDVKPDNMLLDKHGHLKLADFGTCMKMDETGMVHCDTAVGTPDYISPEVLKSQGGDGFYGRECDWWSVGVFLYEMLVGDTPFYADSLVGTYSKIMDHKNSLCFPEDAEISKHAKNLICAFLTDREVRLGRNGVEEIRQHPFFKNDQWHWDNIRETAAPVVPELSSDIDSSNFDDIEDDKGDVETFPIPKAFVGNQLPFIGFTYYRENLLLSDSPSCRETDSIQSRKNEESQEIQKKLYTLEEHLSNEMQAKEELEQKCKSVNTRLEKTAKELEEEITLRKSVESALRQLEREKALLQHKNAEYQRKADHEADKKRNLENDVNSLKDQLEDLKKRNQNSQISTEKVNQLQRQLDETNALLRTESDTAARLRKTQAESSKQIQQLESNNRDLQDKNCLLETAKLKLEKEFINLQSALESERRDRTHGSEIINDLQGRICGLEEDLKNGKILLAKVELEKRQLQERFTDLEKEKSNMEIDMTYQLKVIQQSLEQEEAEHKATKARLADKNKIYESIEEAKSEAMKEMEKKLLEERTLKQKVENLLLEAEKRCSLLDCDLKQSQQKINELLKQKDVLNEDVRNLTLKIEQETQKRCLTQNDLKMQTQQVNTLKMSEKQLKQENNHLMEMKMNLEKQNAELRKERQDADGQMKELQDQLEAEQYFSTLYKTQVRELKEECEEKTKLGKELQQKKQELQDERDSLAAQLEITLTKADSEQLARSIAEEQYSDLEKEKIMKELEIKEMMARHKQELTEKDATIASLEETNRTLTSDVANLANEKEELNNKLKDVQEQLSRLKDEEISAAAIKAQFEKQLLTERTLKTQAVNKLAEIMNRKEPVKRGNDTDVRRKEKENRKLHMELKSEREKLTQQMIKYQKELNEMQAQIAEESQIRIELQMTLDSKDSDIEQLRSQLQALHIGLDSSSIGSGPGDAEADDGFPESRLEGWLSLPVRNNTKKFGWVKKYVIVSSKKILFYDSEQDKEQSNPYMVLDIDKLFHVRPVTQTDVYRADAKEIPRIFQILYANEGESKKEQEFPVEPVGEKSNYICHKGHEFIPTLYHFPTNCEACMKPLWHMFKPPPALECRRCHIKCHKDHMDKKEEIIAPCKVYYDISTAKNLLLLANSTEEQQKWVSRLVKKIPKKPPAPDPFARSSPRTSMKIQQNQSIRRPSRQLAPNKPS
The ROCKII-inhibiting activity of a compound to be tested was defined as 1.0, and the inhibitory activities of the compound against kinases (PKA, PKG, CaMKII, and AuroraA) other than ROCKII were calculated as relative ratios to the ROCKII-inhibiting activity, based on the IC50 values calculated using the above-described evaluation system.

Another test deals with T3, Recombinant human Ab1 (Homo sapiens, UniProt P00519).
T3 construct: from 27th to 1149th amino acids; purchased Upstate
T3 sequence (P00519 27-1149 isoform P00519-2): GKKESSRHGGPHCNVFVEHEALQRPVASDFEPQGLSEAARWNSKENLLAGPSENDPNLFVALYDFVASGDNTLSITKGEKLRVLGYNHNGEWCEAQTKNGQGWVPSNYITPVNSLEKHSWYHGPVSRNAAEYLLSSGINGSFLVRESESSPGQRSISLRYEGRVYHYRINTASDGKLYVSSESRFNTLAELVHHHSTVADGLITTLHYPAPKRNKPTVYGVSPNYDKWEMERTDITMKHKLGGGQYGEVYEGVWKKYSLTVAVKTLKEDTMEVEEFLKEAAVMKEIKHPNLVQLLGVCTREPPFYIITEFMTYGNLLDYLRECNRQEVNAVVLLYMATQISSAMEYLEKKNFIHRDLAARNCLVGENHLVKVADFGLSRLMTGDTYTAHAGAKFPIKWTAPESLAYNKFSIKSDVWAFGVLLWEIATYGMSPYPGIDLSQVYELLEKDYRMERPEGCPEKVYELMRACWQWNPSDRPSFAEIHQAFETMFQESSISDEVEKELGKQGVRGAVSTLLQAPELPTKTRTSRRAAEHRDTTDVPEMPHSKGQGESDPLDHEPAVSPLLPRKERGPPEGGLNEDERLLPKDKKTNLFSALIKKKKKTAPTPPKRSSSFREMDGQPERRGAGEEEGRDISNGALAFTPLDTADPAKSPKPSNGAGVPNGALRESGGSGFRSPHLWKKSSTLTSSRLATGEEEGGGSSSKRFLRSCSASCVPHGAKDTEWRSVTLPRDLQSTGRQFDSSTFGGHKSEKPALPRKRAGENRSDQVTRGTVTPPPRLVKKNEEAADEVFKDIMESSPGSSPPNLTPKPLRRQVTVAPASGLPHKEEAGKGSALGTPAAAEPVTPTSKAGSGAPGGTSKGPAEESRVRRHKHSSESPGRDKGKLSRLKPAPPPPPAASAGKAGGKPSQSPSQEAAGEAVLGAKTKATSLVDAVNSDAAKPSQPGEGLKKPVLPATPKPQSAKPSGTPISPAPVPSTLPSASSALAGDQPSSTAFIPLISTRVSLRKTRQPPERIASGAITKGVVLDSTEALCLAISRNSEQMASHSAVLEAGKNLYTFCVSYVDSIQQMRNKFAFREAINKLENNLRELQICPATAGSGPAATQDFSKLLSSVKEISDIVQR
Kind of test: Abl kinase assay (Kinase-Glo ATP consumption). To be noted: 1 μM ATP; read-out: Kinase Inhibiting Activity (IC50) Abl. The method, then:
Recombinant human Ab1 (from 27th to 1149th amino acids, Upstate) was used to evaluate its activity to phosphorylate a substrate peptide (EAIYAAPFAKKK, Upstate).
as §1, with “enzyme (20” for “enzyme (100”, “of 50” for “of 20”, “7.5), 10” for “7.5), 5”, “chloride,” for “chloride, 0.2 mM of calcium chloride, 0.02 mg/mL of BSA, 8 μg/mL of purified bovine brain calmodulin (Sigma),”
as §2

Turning to `CNCC(=O)N1CCCN(S(=O)(=O)c2cccc3cncc(F)c23)[C@@H](C)C1.Cl.Cl` [Example 2, 2-(S)-1-(4-fluoroisoquinoline-5-sulfonyl)-2-methyl-4-(N-methylglycyl)homopiperazine dihydrochloride], the IC50 on Purified chicken MLCK is more than 100 µM; on Recombinant mouse MKK4 it was more than 100 µM; at ROCKII (Rho-kinase), 0.029 µM; on Recombinant human Ab1, more than 100 µM. On ROCKII (Rho-kinase), the “Realative Inhibitory Activity ROCKII” value came out at 1.

For the compound “2-(S)-1-(4-fluoroisoquinoline-5-sulfonyl)-4-glycyl-2-methylhomopiperazine dihydrochloride [Example 1]”, the IC50 at Purified chicken MLCK is more than 100 µM; on Recombinant mouse MKK4, more than 100 µM; on ROCKII (Rho-kinase), 0.0321 µM; on Recombinant human Ab1 it was more than 100 µM. The “Realative Inhibitory Activity ROCKII” value at ROCKII (Rho-kinase) worked out at 1.

These data come from patent US20090306053A1, “Highly selective rho-kinase inhibitor” (priority 2005, published 2009).
